Experiment [1] relates to Bactrocera oleae. As to the kind of experiment: Insecticidal activity against Bactrocera oleae exposed to 1.12 ug/cm2 compound for 12 hr assessed as insect mortality measured 72 hr post dose by petri dish exposure bioassay (reference value: 2 +/- 2%). Format: functional.
For experiment [2], the system named is Bactrocera oleae. Description: Insecticidal activity against Bactrocera oleae exposed to compound for 12 hr assessed as insect mortality measured 72 hr post dose by petri dish exposure bioassay (reference value: 2 +/- 2%). Format: functional, organism-based.
Experiment [3] concerns Bactrocera oleae. Description: Insecticidal activity against Bactrocera oleae exposed to 0.45 ug/cm2 compound for 12 hr assessed as insect mortality measured 72 hr post dose by petri dish exposure bioassay (reference value: 2 +/- 2%). Format: functional, organism-based.

Activity calls are given as the source filed them. No cut-off for these calls is given here.

For orientation: mortality means the share of the test organisms that died.

Regarding `C/C(=C\COc1c2ccoc2cc2oc(=O)ccc12)CCC1OC1(C)C` (centres undefined) [6',7'-EPOXYBERGAMOTTIN], the mortality in experiment [1] came out at 48%.
In the case of `COc1c2ccoc2cc2oc(=O)ccc12`, the result in experiment [2] and in experiment [3] was inactive.
As for `COc1ccc2ccc(=O)oc2c1CC=C(C)C`, the result in experiment [3] was inactive.

The record behind these values is ChEMBL document CHEMBL3046435, “Isolation and identification of insecticidal components from Citrus aurantium fruit peel extract” (2008).
